From US4983740A, “Process for 1,4-dihydropyridine compounds” (Adir et Compagnie, priority 1986, dated 1991) come the findings set out here.

As usually defined, the IC50 is the point on the concentration scale where inhibition reaches its midpoint. The low end stands for greater potency, the high end for weaker potency.

Where a name gives a salt, the structure may show the parent alone.

The test system of assay [1] is conscious spontaneous hypertensive rats (SHR). The assay is described as follows: Short-term studies in conscious spontaneous hypertensive rats (oral, systolic arterial pressure). The assay is classed as in vivo, rat (SHR). The note with it: 3 mg/kg. The protocol: Short-term Studies in Conscious Spontaneous Hypertensive Rats (SHR)
Male spontaneous hypertensive rats weighing 270 to 320 g, aged 16 to 24 weeks, are anesthetized with ether. A polyethylene catheter is introduced into the femoral artery and moved forward to the level of the tail. The pressure in the femoral artery is recorded with a Statham® P23 sensor, on a Gould® 2400 recorder. The animals are treated at least one hour after the operation. The compounds are administered orally, in the dissolved form. The doses administered are expressed in mg/kg of base. The compounds of the invention were compared with amlodipine and with another 1,4-dihydropyridine derivative reference compound, nifedipine.

Another assay deals with rat aorta. Put plainly: In vitro activity in rat aorta stimulated by potassium ions. The format is cell-based, rat (male Wistar). The note with it: 1 h; rat aorta rings, KCl 80 mM stimulation, cumulative doses at 60 minutes intervals. The protocol:
Determination of the Vitro Activity in Rat Aorta Stimulated by Potassium Ions
This trial was carried out using isolated organs removed from male Wistar rats weighing 300 to 400 g, kept under a water diet 18 hours before sacrificing.
After quickly sacrificing the animal, the aorta (at the level of the arch of the aorta) is removed and dissected into 2 mm-long rings; the endothelium is removed mechanically. After an equilibration period of 1 hour in a physiological solution consisting of (mM): NaCl 112, KCl 5, KH2 PO4 1, MgSO4 1.2, CaCl2 2.5, NaHCO3 25 and glucose 11.5, the preparations are stimulated with a potassium-rich solution. The latter consists of (mM):NaCl 37, KCl 80, KH2 PO4 1, MgSO4 1.2, CaCl2 2.5, NaHCO3 25 and glucose 11.5. This solution has a pH of 7.4 at 37° C.
After 15 minutes of stabilization, the compounds to be tested are then added (sample volume 0.2 ml) at cumulative doses at 60 minutes intervals. From the relaxation values obtained, it is possible to construct a doseresponse curve, leading to the calculation of an IC50 value (expressed in M).

With `CCOC(=O)C1=C(COCCOCCN)NC(C)=C(C(=O)OC)C1c1cccc2c1OCO2` (racemic) [EXAMPLE 2, (4R,S)-2-{[2-(2-Aminoethoxy)ethoxy]methyl}-3-ethoxycarbonyl-5-methoxycarbonyl-6-methyl-4-(2,3-methylenedioxyphenyl)-1,4-dihydropyridine], in assay [1], the “Systolic arterial pressure after treatment, Δ mm Hg, 4 h” value is listed as -13 mm Hg and the “Systolic arterial pressure after treatment, Δ mm Hg, 6 h” value is reported as -16 mm Hg. The same molecule registered an IC50 in the assay on rat aorta of 30 nM.

Regarding `C=CCN(CC=C)CCOCCOCC1=C(C(=O)OCC)C(c2ccccc2Cl)C(C(=O)OC)=C(C)N1` (racemic) [EXAMPLE 8, (4R,S)-4-(2-Chlorophenyl)-2-[{2-[2-(N,N-diallylamino)ethoxy]ethoxy}methyl]-3-ethoxycarbonyl-5-methoxycarbonyl-6-methyl-1,4-dihydropyridine hemifumarate], in assay [1], the “Systolic arterial pressure after treatment, Δ mm Hg, 4 h” value is -21 mm Hg and the “Systolic arterial pressure after treatment, Δ mm Hg, 6 h” value was -19 mm Hg. The molecule also had an IC50 in the assay on rat aorta of 6.5 nM.

In the assay on rat aorta, `COC(=O)C1=C(C)NC(COCCOCCN)=C(C(=O)OCC(C)C)C1c1cccc(Cl)c1Cl` (racemic) [EXAMPLE 28, (4R,S)-2-{[2-(2-Aminoethoxy)ethoxy]methyl}-4-(2,3-dichlorophenyl)-3-isobutyloxycarbonyl-5-methoxycarbonyl-6-methyl-1,4-dihydropyridine fumarate] came in with an IC50 of 9.3 nM.

The molecule `CCOC(=O)C1=C(COCCCOCCCN)NC(C)=C(C(=O)OC)C1c1cccc(C(F)(F)F)c1SC` (racemic) [EXAMPLE 30, (4R,S)-2-{[3-(3-Aminopropoxy)propoxy]methyl}-3-ethoxycarbonyl-5-methoxycarbonyl-6-methyl-4-(2-methylthio-3-trifluoromethylphenyl)-1,4-dihydropyridine fumarate] registered an IC50 in the assay with rat aorta of 25 nM.

The molecule `CCOC(=O)C1=C(COCCOCCN)NC(C)=C(C(=O)OC)C1c1cc(Cl)cc(Cl)c1Cl` (racemic) [EXAMPLE 31, (4R,S)-2-{[2-(2-Aminoethoxy)ethoxy]methyl}-3-ethoxycarbonyl-5-methoxycarbonyl-6-methyl-4-(2,3,5-trichlorophenyl)-1,4-dihydropyridine fumarate] returned an IC50 in the assay on rat aorta of 170 nM.

As for `CCOC(=O)C1=C(COCCOCCN)NC(C)=C(C(=O)OC)C1c1c(Cl)ccc(Cl)c1Cl` (racemic) [EXAMPLE 32, (4R,S,)-2-{[2-(2-Aminoethoxy)ethoxy]methyl}-3-ethoxycarbonyl-5-methoxycarbonyl-6-methyl-4-(2,3,6-trichlorophenyl)-1,4-dihydropyridine fumarate], in the assay on rat aorta, the IC50 came out at 32 nM.

The molecule `COC(=O)C1=C(C)NC(COCCOCCN)=C(C(=O)OCCCC(C2CC2)C2CC2)C1c1cccc(Cl)c1Cl` (racemic) [EXAMPLE 33, (4R,S)-2-{[2-(2-Aminoethoxy)ethoxy]methyl}-4-(2,3-dichlorophenyl)-3-(4,4-dicyclopropylbutyloxycarbonyl)-5-methoxycarbonyl-6-methyl-1,4-dihydropyridinefumarate] yielded an IC50 in the assay on rat aorta of 77 nM.

`CCCNCCOCCOCC1=C(C(=O)OCC)C(c2c(F)c(F)c(F)c(F)c2F)C(C(=O)OC)=C(C)N1` (racemic) [EXAMPLE 34, (4R,S)-3-Ethoxycarbonyl-5-methoxycarbonyl-6-methyl-4-pentafluorophenyl-2-[{2-[2-(N-propylamino)ethoxy]ethoxy}-methyl]-1,4-dihydropyridine fumarate]: it took 1.1 nM to reach half-maximal inhibition with rat aorta (IC50). Against the preceding molecule, the IC50 is about 70-fold lower.

In turn, `COC(=O)C1=C(C)NC(COCCOCCN)=C(C(=O)OC(C)C)C1c1cccc(C(F)(F)F)c1Cl` (racemic) [EXAMPLE 35, (4R,S)-2-{[2-(2-Aminoethoxy)ethoxy]methyl}-4-(2-chloro-3-trifluoromethylphenyl)-3-isopropoxycarbonyl-5-methoxycarbonyl-6-methyl-1,4-dihydropyridine tartrate] yielded an IC50 with rat aorta of 21 nM.

Take `COC(=O)C1=C(C)NC(COCCOCCN)=C(C(=O)OCCCC(C2CC2)C2CC2)C1c1cccc(C(F)(F)F)c1Cl` (racemic) [EXAMPLE 36, (4R,S)-2-{[2-(2-Aminoethoxy)ethoxy]methyl}-4-(2-chloro-3-trifluoromethylphenyl)-3-(4,4-dicyclopropylbutyloxycarbonyl)-5-methoxycarbonyl-6-methyl-1,4-dihydropyridine fumarate]: the midpoint of inhibition with rat aorta, the IC50, lay at 470 nM.

The molecule `COC(=O)C1=C(C)NC(COCCOCCN)=C(C(=O)OCC(C)C)C1c1cccc(C(F)(F)F)c1Cl` (racemic) [EXAMPLE 38, (4R,S)-2-{[2-(2-Aminoethoxy)ethoxy]methyl}-4-(2-chloro-3-trifluoromethylphenyl)-3-isobutyloxycarbonyl-5-methoxycarbonyl-6-methyl-1,4-dihydropyridine fumarate] returned an IC50 with rat aorta of 61 nM.

Molecule `C=C(C)COC(=O)C1=C(COCCOCCN)NC(C)=C(C(=O)OC)C1c1cccc(Cl)c1Cl` (racemic) [EXAMPLE 39, (4R,S)-2-{[2-(2-Aminoethoxy)ethoxy]methyl}-4-(2,3-dichlorophenyl)-3-[(2-methyl-2-propenyl)oxycarbonyl]-5-methoxycarbonyl-6-methyl-1,4-dihydropyridine fumarate] showed an IC50 with rat aorta of 80 nM.

In the assay on rat aorta, `COC(=O)C1=C(C)NC(COCCOCCN)=C(C(=O)OC/C=C/C(C2CC2)C2CC2)C1c1cccc(Cl)c1Cl` [EXAMPLE 29, (4R,S)-2-{[2-(2-Aminoethoxy)ethoxy]methyl}-4-(2,3-dichlorophenyl)-3-{[(E)-4,4-dicyclopropyl-2-butene]-oxycarbonyl}-5-methoxycarbonyl-6-methyl-1,4-dihydropyridine tartrate] had an IC50 of 75 nM.

With `COC(=O)C1=C(C)NC(COCCOCCN)=C(C(=O)OC/C=C/C(C2CC2)C2CC2)C1c1cccc(C(F)(F)F)c1Cl` [EXAMPLE 37, (4R,S)-2-{[2-(2-Aminoethoxy)ethoxy]methyl}-4-(2-chloro-3-trifluoromethylphenyl)-3-{[(E)-4,4-dicyclopropyl-2-butene]oxycarbonyl}-5-methoxycarbonyl-6-methyl-1,4-dihydropyridine fumarate], the IC50 with rat aorta came out at 350 nM.

For the molecule `COC(=O)C1=C(C)NC(C)=C(C(=O)OC)C1c1ccccc1[N+](=O)[O-]` [NIFEDIPINE, nifedipine, reference compound], in assay [1], the “Systolic arterial pressure after treatment, Δ mm Hg, 4 h” value was -19 mm Hg and the “Systolic arterial pressure after treatment, Δ mm Hg, 6 h” value is reported as -25 mm Hg.
